Measurements as given in ChEMBL document CHEMBL3638868, “Nitrogenous-ring acylguanidine derivative” (2014).

Molecular target: 5-hydroxytryptamine receptor 5A (Homo sapiens, UniProt P47898)
Assay: Binding Inhibition Assay: A solution of the compound to be tested and 100 μM 5-CT (5-carboxamidetriptamine) in DMSO was added to a 96-well plate at 2 μl/well, suspended in an incubation buffer, and a membrane from HEK293 cells for forced expressions of a human 5-HT5A receptor prepared at 200 ug/ml was added at 100 μl/well. After incubation at room temperature for 15 minutes, a [3H]5-CT solution (2 nM [3H]5-CT, incubation buffer) was added thereto at 100 μl/well.Separately, 100 μl of the solution was distributed into a liquid scintillation vial, and 2 ml of Aquasol II (registered trademark) was added thereto, followed by stirring. Then, radioactivity was measured by a liquid scintillation counter. It was incubated at 37C. for 60 minutes. The reaction mixture was sucked into 96-well GF/C filter plate that had been pre-treated with 0.2% polyethyleneimine, and washed six times with an ice-cooled, 50 mM Tris (pH 7.5) buffer. The GF/C filter plate was dried.
Type: cell membranes

5-hydroxytryptamine receptor 5A, sequence (P47898 whole entry): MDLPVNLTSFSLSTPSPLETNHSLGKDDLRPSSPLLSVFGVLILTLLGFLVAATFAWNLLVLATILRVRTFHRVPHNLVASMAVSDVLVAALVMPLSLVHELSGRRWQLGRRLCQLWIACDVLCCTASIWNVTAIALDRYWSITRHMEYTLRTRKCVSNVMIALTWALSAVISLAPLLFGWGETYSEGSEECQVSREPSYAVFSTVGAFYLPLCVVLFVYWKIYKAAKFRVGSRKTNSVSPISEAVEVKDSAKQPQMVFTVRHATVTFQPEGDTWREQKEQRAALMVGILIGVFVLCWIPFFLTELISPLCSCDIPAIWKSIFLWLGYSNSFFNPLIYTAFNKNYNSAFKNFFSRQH

Q: For NC(N)=NC(=O)c1ccc2c(C(F)F)cnc(-c3c(F)cccc3F)c2c1, which Ki is on record?
A: Its Ki is 4.6 nM.
